Key:
KB = experiment: Cytotoxicity against human KB cells; assay type: cell-based
Plasmodium falciparum = experiment: Antiprotozoal activity against Plasmodium falciparum K1; assay type: functional, organism-based
Leishmania donovani = experiment: Antileishmanial activity against Leishmania donovani (MHOM/ET/67/L82) promastigotes; assay type: functional, organism-based
[1] = test system: Trypanosoma brucei brucei; experiment: Antitrypanosomal activity against Trypanosoma brucei brucei S427 blood stream trypomastigotes; assay type: functional, organism-based

IC50 (Plasmodium falciparum)	IC50 (Leishmania donovani)	IC50 [1]	SMILES	IC50 (KB)
–	–	–	COc1cc([C@@H]2c3cc4c(cc3[C@H](O)[C@H]3COC(=O)[C@H]23)OCO4)cc(OC)c1OC [PODOFILOX]	0.00621 µg/mL
> 100 µM	> 100 µM	> 100 µM	C=C1C[C@@H](OC(C)=O)[C@]2(C)CC[C@]3(C)[C@H]4[C@H](OC(C)=O)C[C@]5(COC(C)=O)[C@@H](C)OC(=O)[C@H]6O[C@H]6[C@H]5[C@]4(C)CC[C@@]3(C(=O)OC)[C@]2(O)C1 [GALPHIN B]	> 100 µM
> 100 µM	> 100 µM	> 100 µM	C=C1C[C@H](C(=O)OC)[C@]2(C)CC[C@]3(C)[C@H]4[C@H](O)[C@@H](O)[C@]5(COC(C)=O)[C@@H](C)[C@@H](OC(C)=O)CC[C@H]5[C@]4(C)CC[C@@]3(O)[C@]2(O)C1 [GALPHIMIDIN]	> 100 µM
–	0.24 µg/mL	0.0006 µg/mL	N=C(N)c1ccc(OCCCCCOc2ccc(C(=N)N)cc2)cc1 [PENTAMIDINE]	0.11 µg/mL
–	–	–	CCN(CC)CCCC(C)Nc1ccnc2cc(Cl)ccc12 (stereo not drawn) [CHLOROQUINE]	51.4 µg/mL
> 100 µM	> 100 µM	> 100 µM	C=C1C[C@@H](OC(C)=O)[C@]2(C)CC[C@]3(C)[C@H]4[C@H](OC(C)=O)C[C@]5(COC(C)=O)[C@@H](C)OC(=O)[C@H]6O[C@H]6[C@H]5[C@]4(C)C[C@H](OC(C)=O)[C@@]3(C(=O)OC)[C@]2(O)C1 [GALPHIN C]	> 100 µM
> 100 µM	> 100 µM	> 100 µM	C=C1CC[C@]2(C)CC[C@]3(C)[C@H]4[C@H](OC(C)=O)C[C@]5(COC(C)=O)[C@@H](C)OC(=O)[C@H]6O[C@H]6[C@H]5[C@]4(C)CC[C@@]3(C(=O)OC)[C@]2(O)C1 [GALPHIN A]	> 100 µM

SMILES	IC50 (Plasmodium falciparum)	IC50 (Leishmania donovani)	IC50 [1]	IC50 (KB)
CC[C@H](/C=C/[C@@H](C)[C@H]1CC[C@H]2[C@@H]3CC=C4C[C@@H](O)CC[C@]4(C)[C@H]3CC[C@]12C)C(C)C [STIGMASTEROL]	> 100 µM	> 100 µM	> 100 µM	> 100 µM
CC[C@H](/C=C/[C@@H](C)[C@H]1CC[C@H]2[C@@H]3CC=C4C[C@@H](O[C@@H]5O[C@H](CO)[C@@H](O)[C@H](O)[C@H]5O)CC[C@]4(C)[C@H]3CC[C@]12C)C(C)C [STIGMASTEROL GLUCOSIDE]	> 100 µM	> 100 µM	> 100 µM	> 100 µM
O=c1c(O)c(-c2ccc(O)c(O)c2)oc2cc(O)cc(O)c12 [QUERCETIN]	6.5 µg/mL	29.5 µg/mL	4.5 µg/mL	136 µg/mL
